Laboratory results as given in patent publication EP2197279B1, “C10-SUBSTITUTED CAMPTOTHECIN ANALOGS” (BIONUMERIK PHARMACEUTICALS, INC., priority 2007, dated 2009).
Read-outs that look alike come from different tables or passages of the source.

Tests used:
human plasma proteins = test: Percent of free camptothecin analogs in human plasma (dialysis, HPLC); assay type: in vitro ADME; details: 100 nM Compound Concentrations
Experimental: Stocks of various camptothecin analogs were prepared in DMSO. […] Optimum HPLC detection conditions for each camptothecin analog were developed using traditional HPLC methods. Table VIII. Percent of Free Camptothecin Analogs in Human Plasma (100 nM Compound Concentrations)

[1] = system: panel of over 20 human cancer cell lines; test: In vitro studies on a panel of human cancer cell lines; assay type: cell-based; details: compared with Topotecan or SN-38
[2] = cited from earlier work; for Non-Hematologic Toxicity No. of Patients With: Cystitis / Non-Hematologic Toxicity No. of Patients With: Diarrhea: 5-day Course; for Number of Patients with Non-Hematologic Toxicity: Cystitis / Number of Patients with Non-Hematologic Toxicity: Diarrhea: Single-Dose Method
[3] = eight patients with measurable disease, 5-day courses at dose levels associated with toxicity; cited from earlier work
[4] = system: advanced gastrointestinal cancer; details: cited from earlier work
[5] = system: advanced malignant melanoma; details: fifteen patients, 90-360 mg/m^2 repeated every 2 weeks; cited from earlier work
[6] = 15 mg/m^2 X 5, 9 patients treated
[7] = 17 mg/m^2 X 5, 5 patients treated
[8] = 20 mg/m^2 X 5, 10 patients treated
[9] = 5-Day Course (27 Patients Total), 4 wks
[10] = 5-Day Course (27 Patients Total), 8 wks
[11] = 5-Day Course (27 Patients Total), 12 wks
[12] = Single-Dose Method (34 Patients Total), 3 wks
[13] = Single-Dose Method (34 Patients Total), 6 wks
[14] = Single-Dose Method (34 Patients Total), 9 wks
[15] = Single-Dose Method (34 Patients Total), 12 wks

CC[C@@]1(O)C(=O)OCc2c1cc1n(c2=O)Cc2c-1nc1ccccc1c2CC[Si](C)(C)C [Karenitecin (BNP1350), (4S)-4-ethyl-4-hydroxy-11-[2-(trimethylsilyl)ethyl]-1H-pyrano[3':4':6,7]indolizino[1,2-b]quinoline-3,14(4H,12H)-dione]
Percent of Free CPTs (human plasma proteins): 1% | antitumor potency [1]: significantly more potent

CC[C@@]1(O)C(=O)OCc2c1cc1n(c2=O)Cc2cc3ccccc3nc2-1 [CPT sodium]
Cystitis ([2]; 5-Day Course (P<0.05)): 48 (P<0.05) % of 27 Patients | Non-Hematologic Toxicity No. of Patients With: Cystitis ([2]; 11 mg/m^2 X 5, 2 patients treated): 1 | Non-Hematologic Toxicity No. of Patients With: Cystitis [2, 6]: 4 | Non-Hematologic Toxicity No. of Patients With: Diarrhea [2, 6]: 1 | Non-Hematologic Toxicity No. of Patients With: Cystitis [2, 7]: 2 | Non-Hematologic Toxicity No. of Patients With: Diarrhea [2, 7]: 4 | Non-Hematologic Toxicity No. of Patients With: Cystitis [2, 8]: 6 | Non-Hematologic Toxicity No. of Patients With: Diarrhea [2, 8]: 4 | Non-Hematologic Toxicity No. of Patients With: Diarrhea ([2]; 22 mg/m^2 X 5, 1 patient treated): 1 | Cystitis ([2]; Single Dose): 24 % of 34 Patients | Number of Patients with Non-Hematologic Toxicity: Cystitis ([2]; 100 mg/m^2, 6 patients treated): 2 | Number of Patients with Non-Hematologic Toxicity: Cystitis ([2]; 110 mg/m^2, 2 patients treated): 1 | Number of Patients with Non-Hematologic Toxicity: Diarrhea ([2]; 110 mg/m^2, 2 patients treated): 1 | Number of Patients with Non-Hematologic Toxicity: Cystitis ([2]; 120 mg/m^2, 7 patients treated): 2 | Number of Patients with Non-Hematologic Toxicity: Diarrhea ([2]; 120 mg/m^2, 7 patients treated): 4 | Number of Patients with Non-Hematologic Toxicity: Cystitis ([2]; 180 mg/m^2, 9 patients treated): 3 | Number of Patients with Non-Hematologic Toxicity: Diarrhea ([2]; 180 mg/m^2, 9 patients treated): 2 | clinical benefit [3]: No clinical benefit | Objective Results: Improved [4, 9]: 1 | Objective Results: Stable [4, 9]: 12 | Objective Results: Worse [4, 9]: 14 | Objective Results: Stable [4, 10]: 7 | Objective Results: Worse [4, 10]: 20 | Objective Results: Stable [4, 11]: 6 | Objective Results: Worse [4, 11]: 21 | Objective Results: Improved ([4]; Single-Dose Method (34 Patients Total), 3 wks after start of therapy): 4 | Objective Results: Stable [4, 12]: 17 | Objective Results: Worse [4, 12]: 13 | Objective Results: Improved [4, 13]: 2 | Objective Results: Stable [4, 13]: 11 | Objective Results: Worse [4, 13]: 21 | Objective Results: Improved [4, 14]: 2 | Objective Results: Stable [4, 14]: 8 | Objective Results: Worse [4, 14]: 24 | Objective Results: Stable [4, 15]: 6 | Objective Results: Worse [4, 15]: 28 | patients with partial objective improvement ([4]; after 2 months (8 or 9 weeks), of 61 patients): two | patients showing improvement ([4]; at 3 months, of 61 patients): none | patients showing a 25%-50% response ([4]; at 3 wks, only): *A total of 3 patients showed a 25%-50% response at 3 wks, only. | myelosuppression [5]: 11 patients | patients with a 50% or greater decrease in tumor diameter [5]: None
